Usually IC50 stands for the point on the concentration scale where inhibition reaches its midpoint. The term Kd denotes a measure of binding affinity in units of concentration. A word on the stoichiometry N: it is a count of units in the complex or per binding partner.

The test system of one data set is CSE. To be noted: cited from earlier work.
Data set [1] addresses T1, human CSE (cystathionine γ-lyase) (Homo sapiens, UniProt P32929). The data set can be described thus: lead acetate assay of H2S production from cysteine. Format: biochemical. Also on record: 6xHis (TEV-cleavable) (N, cleaved yes); made in house; host or cells: E. coli One Shot BL-21 Star (DE3). As to the method:
Production of H2S from cysteine by CSE was measured spectrophotometrically by the lead acetate assay as previously described. […] Then, the formation of lead sulfide resulting from the reactivity of H2S with lead acetate was continuously monitored at 390 nm. The half inhibitory concentration (IC50) value was obtained by plotting the relative activity of CSE (A, in per cent) as a function of the concentration of D-pen and by fitting the data with Eq. (4), where ∆A is the maximal effect of D-pen on the activity of CSE and n is the Hillslope that characterizes the slope of the curve at its midpoint.4 A=ΔA/1+[D-Pen]/IC50^n
Next, 40 μg of CSE was added to the assay mixture to initiate the reaction, which was followed at 390 nm. The molar extinction coefficient for lead sulfide previously determined was then used to obtain vH2S[24]. The CSE-D-penicillamine dissociation constants for competitive and uncompetitive inhibition were calculated by plotting vH2S as a function of cysteine concentration and using Eq. (5).5 vH2S=Vmax×[Cys]/KM×1+[D-Pen]/Kic+[Cys]×1+[D-Pen]/Kiu

Data set [2] deals with recombinant CSE (GST-CSE). Particulars: 1 mM Cys, methylene blue assay, 10 min pre-incubation with CSE; read-out: IC50 towards H2S production; cited from earlier work.
Data set [3] has as its target T1, human CSE (cystathionine γ-lyase). Nature of the data set: biochemical.
In data set [4] the test system is homogenated mouse aorta samples. Also on record: method as in Brancaleone et al. (34). Particulars: ref Brancaleone et al. (34), read-out: IC50 ex cellulo; cited from earlier work.
In data set [5] the target is T1, human CSE (cystathionine γ-lyase).
Data set [6] concerns the target T2, recombinant human CSE (cystathionine γ-lyase), tag-less (Homo sapiens, UniProt P32929).
T2 construct: 6xHis (TEV-cleavable) (N, cleaved yes); made in house; host or cells: E. coli One Shot BL-21 Star (DE3)
The data set can be described thus: D-penicillamine binding followed by PLP fluorescence quenching. To be noted: PLP fluorescence at 495 nm, 100 mM HEPES pH 7.4, 20 °C, n = 3 ± SD; read-out: Kd (dissociation constant between tag-less CSE and D-pen). As to the method:
The addition of D-pen induced a quenching of fluorescence. […] The black line represents the fit to the experimental data with a four-parameter logistic equation to obtain the dissociation binding constant of D-pen for CSE.
Fluorescence emission spectra were recorded 5 min after D-pen addition.

Data set [7] deals with the molecule itself. The data set can be described thus: SEC; HiLoad 16/600 Superdex 200, 0.5 mL/min, 100 mM HEPES pH 7.4, 150 mM NaCl; oligomeric state from the estimated apparent molecular mass.

T1 sequence (P32929 whole entry): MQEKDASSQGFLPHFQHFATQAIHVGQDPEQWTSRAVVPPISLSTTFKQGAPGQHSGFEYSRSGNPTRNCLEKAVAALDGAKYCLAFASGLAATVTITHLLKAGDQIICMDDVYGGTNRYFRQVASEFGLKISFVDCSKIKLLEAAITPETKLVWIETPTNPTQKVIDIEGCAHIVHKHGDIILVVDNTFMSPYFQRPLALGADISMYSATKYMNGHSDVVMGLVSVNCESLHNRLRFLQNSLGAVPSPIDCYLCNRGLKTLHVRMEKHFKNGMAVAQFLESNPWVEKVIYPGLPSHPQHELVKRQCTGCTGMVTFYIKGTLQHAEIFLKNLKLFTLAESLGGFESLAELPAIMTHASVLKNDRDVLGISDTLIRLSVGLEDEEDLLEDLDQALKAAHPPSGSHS
T2 sequence (P32929 whole entry): as above

In the case of `C#CCNC(=O)[C@@H]1CSC(=O)N1` [(R)-2-oxo-N-(prop-2-yn-1-yl)thiazolidine-4-carboxamide], the “inhibitory mode towards CSE” value in the data set on CSE was “substrate inhibitors”.
Take `CC(C)(S)[C@@H](N)C(=O)O` [D-pen, D-penicillamine]: the half-maximal inhibitory concentration (IC50) in data set [1] (1 mM Cys, 200 mM HEPES pH 7.4, 37 °C, no pre-incubation with enzyme, read-out: IC50 towards H2S production) is 2.04 ± 0.13 mM; in data set [2], 270 µM; in data set [4], 44 µM. For the same molecule, the “Kiu (dissociation constant for uncompetitive inhibition), H2S biogenesis from Cys” value in data set [1] (1–10 mM cysteine, 100 mM HEPES pH 7.4, 37 °C) was determined as 8.60 ± 1.22 mM. For the same molecule, the Ki in data set [1] (1–10 mM cysteine, 100 mM HEPES pH 7.4, 37 °C, read-out: Kic (dissociation constant for competitive inhibition), H2S biogenesis from Cys) is 1.82 ± 0.35 mM; in data set [3] it was 2.54 ± 0.65 mM. In addition, the “mode of inhibition of H2S biogenesis” value in data set [1] (Lineweaver–Burk analysis, varying Cys) is reported as “mixed inhibition mechanism”. Besides, the “effect of pre-incubation time on inhibition potency” value in data set [1] (inhibition followed as a function of pre-incubating time) was “not a slow-binding inhibitor”. In data set [5] (0.1–3 mM cystathionine, 100 mM HEPES pH 7.4, 37 °C), the “Kiu (uncompetitive inhibition), α,γ-elimination of cystathionine” value is 8.55 ± 0.89 mM. Besides, the “mode of inhibition of cystathionine cleavage” value in data set [5] (Lineweaver–Burk analysis) was “mixed inhibition mechanism”. Besides, the Kd in data set [6] turned out to be 15 ± 4.6 mM.
As for `N[C@@H](CSCCCC(=O)O)C(=O)O` [S-3-carboxypropyl-L-cysteine], in the data set on CSE, the “inhibitory mode towards CSE” value was “suicide inhibitors”.
For `NCCO/C=C/[C@H](N)C(=O)O` [aminoethoxyvinyglycine], the “inhibitory mode towards CSE” value in the data set on CSE was “slow and tight binding inhibitor”.
In the case of `O=C(O)C1=CC(=C(c2ccc(O)c(C(=O)O)c2)c2ccc(O)c(C(=O)O)c2)C=CC1=O` [aurintricarboxylic acid], in the data set with CSE, the “inhibitory mode towards CSE” value was “competitive cofactor”.
For the molecule `C#CCC(N)C(=O)O` (stereo not shown) [propargylglycine], in the data set with CSE, the “inhibitory mode towards CSE” value is on record as “suicide inhibitors”.
Regarding `N[C@H](C(=O)O)C(F)(F)F` [trifluoroalanine], the “inhibitory mode towards CSE” value in the data set with CSE was “suicide inhibitors”.

B1: human recombinant cystathionine γ-lyase with N-terminal 6xHis-tag (enzyme)
chain: MQEKDASSQGFLPHFQHFATQAIHVGQDPEQWTSRAVVPPISLSTTFKQGAPGQHSGFEYSRSGNPTRNCLEKAVAALDGAKYCLAFASGLAATVTITHLLKAGDQIICMDDVYGGTNRYFRQVASEFGLKISFVDCSKIKLLEAAITPETKLVWIETPTNPTQKVIDIEGCAHIVHKHGDIILVVDNTFMSPYFQRPLALGADISMYSATKYMNGHSDVVMGLVSVNCESLHNRLRFLQNSLGAVPSPIDCYLCNRGLKTLHVRMEKHFKNGMAVAQFLESNPWVEKVIYPGLPSHPQHELVKRQCTGCTGMVTFYIKGTLQHAEIFLKNLKLFTLAESLGGFESLAELPAIMTHASVLKNDRDVLGISDTLIRLSVGLEDEEDLLEDLDQALKAAHPPSG
modifications: pyridoxal 5'-phosphate as internal aldimine with Lys212
notes: cystathionine γ-lyase (CSE), human; also called CSE; hCSE; source: E. coli One Shot BL-21 Star (DE3), purified (His-Trap HP, HiLoad 16/600 Superdex 200); not shown: His6, N-terminal, kept
As for B1, the “stoichiometry N” value in data set [7] was 4.

B2: tag-less human recombinant cystathionine γ-lyase (enzyme)
chain: MQEKDASSQGFLPHFQHFATQAIHVGQDPEQWTSRAVVPPISLSTTFKQGAPGQHSGFEYSRSGNPTRNCLEKAVAALDGAKYCLAFASGLAATVTITHLLKAGDQIICMDDVYGGTNRYFRQVASEFGLKISFVDCSKIKLLEAAITPETKLVWIETPTNPTQKVIDIEGCAHIVHKHGDIILVVDNTFMSPYFQRPLALGADISMYSATKYMNGHSDVVMGLVSVNCESLHNRLRFLQNSLGAVPSPIDCYLCNRGLKTLHVRMEKHFKNGMAVAQFLESNPWVEKVIYPGLPSHPQHELVKRQCTGCTGMVTFYIKGTLQHAEIFLKNLKLFTLAESLGGFESLAELPAIMTHASVLKNDRDVLGISDTLIRLSVGLEDEEDLLEDLDQALKAAHPPSG
modifications: pyridoxal 5'-phosphate as internal aldimine with Lys212
notes: cystathionine γ-lyase (CSE), human; tag removed with TEV protease; also called tag-less CSE; CSE; not shown: His6, N-terminal, cleaved
Turning to B2, in data set [7], the “stoichiometry N” value is 4.

The values above are taken from paper PMC10160035, “Mechanism-based and computational modeling of hydrogen sulfide biogenesis inhibition: interfacial inhibition” (Scientific Reports, 2023).
